Paper PMC7913881, “The First Step of Biodegradation of 7-Hydroxycoumarin in Pseudomonas mandelii 7HK4 Depends on an Alcohol Dehydrogenase-Type Enzyme” (International Journal of Molecular Sciences, 2021)

Assays:
[1] = molecular target: T1, (UniProt A0A890JDX9); assay: spectrophotometric NADPH oxidation kinetics with purified enzyme; substrate and substrate inhibitor; assay type: biochemical, Pseudomonas mandelii
T1 construct: gene hcdE; recombinant C-terminally His6-tagged protein
From the text: spectrophotometric NADPH oxidation kinetics with purified enzyme; substrate and substrate inhibitor on HcdE | 7-hydroxycoumarin was likely a pseudo-competitive inhibitor characterized by the inhibition constant Ki

[2] = system: NC(=O)C1=CN([C@@H]2O[C@H](COP(=O)(O)OP(=O)(O)OC[C@H]3O[C@@H](n4cnc5c(N)ncnc54)[C@H](OP(=O)(O)O)[C@@H]3O)[C@@H](O)[C@H]2O)C=CC1; assay: purified protein; conditions: varied: cofactor

T1 sequence (A0A890JDX9 1-376 limits assumed): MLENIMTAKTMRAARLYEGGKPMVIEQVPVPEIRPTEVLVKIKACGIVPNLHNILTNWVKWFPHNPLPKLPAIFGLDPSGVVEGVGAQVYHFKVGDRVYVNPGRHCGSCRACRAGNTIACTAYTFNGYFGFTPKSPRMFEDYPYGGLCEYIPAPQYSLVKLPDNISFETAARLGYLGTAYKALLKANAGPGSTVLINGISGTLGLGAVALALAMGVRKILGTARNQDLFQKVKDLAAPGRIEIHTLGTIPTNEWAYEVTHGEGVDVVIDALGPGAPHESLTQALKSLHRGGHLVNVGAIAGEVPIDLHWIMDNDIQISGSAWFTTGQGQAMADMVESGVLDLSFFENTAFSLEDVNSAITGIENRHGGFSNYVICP

Row | Compound | Ki [1] | Km [2]
1 | O=c1ccc2ccc(O)cc2o1 [compound 1, 7-hydroxycoumarin] | 22 mM | –
2 | HcdE (Pseudomonas mandelii) | – | 20 µM
